Measurements from US9061077B2 (Emory University, priority 2008, dated 2015).
Values joined by “and” are separate entries in the source; they are usually repeats but may differ in a detail not shown here. Equal entries are not always repeated. Where two headings read alike, the source gives them in different places. One block for each compound: values may come before it.

Tests used:
[1] = humans, cited from earlier work
[2] = background statement; cited from earlier work
[3] = cited from earlier work
plasma protein [4] = conditions: rats, cited from earlier work
[5] = Comparison of renal tracer clearances in human subjects relative to PAH (FIG. 4)
[6] = normal volunteers; cited from earlier work
plasma protein [7] = assay: Plasma protein binding by ultrafiltration, rat plasma; assay type: in vitro ADME; conditions: rats
Procedure: (§1) Arterial blood samples were placed in capillary tubes and centrifuged to determine the hematocrit. Samples of the whole blood and packed cells (about 0.3 mL each) were pipetted into counting tubes, weighed, and counted. The percent uptake in the erythrocytes was calculated from the whole blood (counts/g) and packed cells (counts/g). Percent erythrocyte uptake=[(counts/g in erythrocytes×hematocrit)/counts/g in whole blood]. No correction was made for plasma trapped in the red blood cells sample. PPB and erythrocyte uptake were calculated in duplicate and the mean values reported.

[8] = Biodistribution in Sprague-Dawley rats, percentage of injected dose (Example 6, Table 1); assay type: in vivo; conditions: for Percentage of injected dose in bowel: combined stomach and intestine
Procedure: Five samples for the 10 mins study, and six samples for the 60 mins study were used; the one sample for each time point was diluted to 100 ml, and three 1-ml portions of the resulting solution were used as standards. Each rat was anesthetized with ketamine-xylazine (2 mg/kg of body weight) injected intramuscularly, with additional supplemental anesthetic as needed. The bladder was catheterized by use of heat-flared PE-50 tubing (Becton, Dickinson and Co.) for urine collection.
A blood sample was obtained, and the heart, lungs, spleen, liver, intestines, stomach, and kidneys were removed. The whole liver was weighed, and random sections were obtained for counting. Blood, urine, whole organs, and tissue samples were placed in tubes, and each sample was weighed. […] The percentage of the dose in each tissue or organ was calculated by dividing the counts in each tissue or organ by the total injected counts, using reference counts from an accurately diluted sample of the original injection. The value given for the bowel represented combined stomach and intestine activities.

[9] = Biodistribution in normal rats, Group A (Example 7, Table 3); assay type: in vivo, Sprague-Dawley rats; conditions: for Percent injected dose in bowel: duodenum and colon samples; for Percent injected dose in blood: normal rats Group A, n=5
Procedure: (§2) Rats in both groups were anesthetized with ketamine-xylazine (2 mg/kg of body weight) injected intramuscularly, with additional supplemental anesthetic as needed. In the first group of ten normal rats (Group A), the bladder was catheterized by use of heat-flared PE-50 tubing. In the second group of six rats (Group B), the abdomen was open by a midline incision and both renal pedicles were ligated to produce a model of renal failure; thus no urine was collected.
(§3) One additional aliquot (0.2 mL) for each time point was diluted to 100 mL, and three 1-mL portions of the resulting solution were used as standards.
In Group A, 5 animals were sacrificed at 10 min, and 5 animals were sacrificed at 60 mins after injection. A blood sample was obtained, and the kidneys, heart, lungs, spleen, whole stomach and sections of the duodenum and ascending colon were removed and placed in counting vials. The whole liver was weighed, and random sections were obtained for counting. Samples of blood and urine were also placed in counting vials and weighed. […] The percentage of the dose in each tissue or organ was calculated by dividing the counts in each tissue or organ by the total injected counts. The percentage injected dose reported for the bowel was based on the combined counts of the duodenum and colon samples.

[10] = Biodistribution in rats with renal pedicle ligation (renal failure model), Group B; assay type: in vivo, Sprague-Dawley rats; conditions: 60 min
Procedure: as §2, §3
The 6 Group B rats were sacrificed 60 mins after injection. Selected organs, blood, and all of the small and large intestines were collected and counted as described above. The percentage injected dose reported for the bowel was based on the combined counts in the small and large intestines.

[11] = Renal extraction fraction in rats (arterial vs renal venous plasma); assay type: in vivo
red blood cells [12] = conditions: human blood, equilibrium conditions; cited from earlier work
erythrocytes = assay: Erythrocyte uptake, rat blood; assay type: in vitro ADME; conditions: rats
Procedure: as §1

plasma protein [13] = assay: Plasma protein binding in healthy volunteers; assay type: in vitro ADME, human; conditions: normal volunteers, individual values and mean
[14] = Plasma clearance in healthy volunteers (single injection, two-compartment model); assay type: in vivo, human; conditions: normal volunteers (n=5), individual values and mean
Text: (§4) Inclusion criteria required the absence of any history of kidney and bladder diseases and a normal review of systems. Pregnancy was excluded in females by means of a urine pregnancy test.

red blood cells [15] = assay: Red cell uptake in healthy volunteers; assay type: in vitro ADME, human; conditions: normal volunteers, individual values and mean
[16] = normal volunteers
[17] = Renal (plasma) clearance at steady-state infusion in rats; assay type: in vivo; conditions: steady-state co-infusion, average of three 10-min periods
Procedure: Two male rats were anesthetized as described above and placed on a heated surgical table. Following tracheostomy, the left jugular vein was cannulated with two pieces of PE-50 tubing (one for infusion of radiopharmaceuticals and one to infuse normal saline (5.8 mL/h) to maintain hydration and additional anesthetic (5 mg/h) as necessary). The right carotid artery was cannulated for blood sampling and the bladder was catheterized by use of PE-50 tubing. The core temperature of each animal was continually monitored throughout the study using a rectal temperature probe. […] (3.7 MBq/mL [100 μCi/mL]) and ^131I-OIH (1.85 MBq/mL [50 μCi/mL]), were co-infused at a flow rate of 1.7 ml/h for 60 mins to establish steady-state blood levels. […] The blood samples were centrifuged for 15 mins and plasma samples were obtained. Plasma clearance (CI) was determined by utilizing the equation: CI (mL/min)=UV/P, where U is the urine radioactivity concentration, V is the urine volume excreted per minute and P is the plasma radioactivity concentration.

[18] = cited from earlier work; remark: listed apart in the source
[19] = eight human volunteers, single ingested dose of 10 mg; cited from earlier work
[20] = In vitro stability in physiological phosphate buffer pH 7.4 (HPLC); conditions: phosphate buffer pH 7.4, 24 h, listed as Na2[^99mTc(CO)3(NTA)]
[21] = cited from earlier work; remark: listed apart in the source
[22] = Safety in healthy volunteers (vital signs, CBC, chemistry panel, urinalysis); assay type: in vivo, human; conditions: about 74 MBq, pre- and 24 hr post-injection
Text: as §4, with “Five healthy volunteers (3 male, 2 females; mean age±SD, 39.4±12.7 yrs; range 20-55 yrs) participated in this study. Inclusion” for “Inclusion”

[23] = Cysteine and histidine challenge at 37 C (HPLC); conditions: 0.1 M cysteine and histidine, 4 h, listed as Na2[^99mTc(CO)3(NTA)]

Compound: ^99mTc-DD-ethylene dicysteine
Clearance as percent of that of PAH ([1]; literature): 60-65%

Compound: O=C([O-])CN=C([O-])CN=C([O-])CN=C([O-])C[S-].[O-2].[Tc+4] [^99mTc-MAG3, technetium-99m mercaptoacetyltriglycine]
Extraction fraction (EF) [2]: 50-60%
Hepatobiliary clearance ([3]; fasting rats): 11.7%
Hepatobiliary clearance ([3]; rats with free access to food): 6.6%
Protein binding (plasma protein [4]; before infusion): 78%
Protein binding (plasma protein [4]; following PAH infusion): 44%
Protein binding (plasma protein [4]; following ammonium chloride infusion): 63%
Protein binding (plasma protein [4]; following mannitol infusion): 42%
Protein binding (plasma protein [4]; following sodium bicarbonate infusion): 65%
Clearance relative to PAH (PAH assigned 100%) [5]: substantially less than that of PAH
Clearance relative to PAH (PAH assigned 100%) ([5]; listed as 99mTcMAG3): substantially less
Clearance as multiple of the clearance of 99mTc-DTPA [1]: 2-2.5 times
Injected dose transported into the small intestine via the hepatobiliary system [6]: 0.5-1.0%

Plasma protein binding (plasma protein [7]): 44±10%
Percentage of injected dose in heart ([8]; 10 min): 0.2 ± 0.1%
Percentage of injected dose in kidney ([8]; 10 min): 5.6 ± 0.6%
Percentage of injected dose in liver ([8]; 10 min): 4.0 ± 0.7%
Percentage of injected dose in lung ([8]; 10 min): 0.5 ± 0.2%
Percentage of injected dose in urine ([8]; 10 min): 53.2 ± 7.2%
Percentage of injected dose in bowel ([8]; 10 min): 2.5 ± 0.5%
Percentage of injected dose in blood ([8]; 10 min post-injection, n=5): 5.6 ± 1.0%
Percentage of injected dose in heart ([8]; 60 min): 0.0 ± 0.0%
Percentage of injected dose in kidney ([8]; 60 min): 0.5 ± 0.0%
Percentage of injected dose in liver ([8]; 60 min): 0.7 ± 0.2%
Percentage of injected dose in lung ([8]; 60 min): 0.1 ± 0.1%
Percentage of injected dose in urine ([8]; 60 min): 91.4 ± 3.7%
Percentage of injected dose in bowel ([8]; 60 min): 1.7 ± 0.7%
Percentage of injected dose in blood ([8]; 60 min post-injection, n=6): 0.5 ± 0.0%
Percent injected dose in kidney ([9]; Group A, 10 min): 5.6 ± 0.6%
Percent injected dose in liver ([9]; Group A, 10 min): 4.0 ± 0.7%
Percent injected dose in urine ([9]; Group A, 10 min): 53.2 ± 7.2%
Percent injected dose in bowel ([9]; Group A, 10 min): 2.2 ± 0.4%
Mean total injected activity present in heart, lungs, spleen, blood and liver ([9]; Group A, 60 min): 1.1%
Percent injected dose in kidney ([9]; Group A, 60 min): 0.5 ± 0.0%
Percent injected dose in liver ([9]; Group A, 60 min): 0.6 ± 0.3%
Percent injected dose in urine ([9]; Group A, 60 min): 91.4 ± 3.7%
Percent injected dose in bowel ([9]; Group A, 60 min): 1.0 ± 0.5%
Percent injected dose in blood ([9]; 10 min): 5.6 ± 1.0%
Percent injected dose in blood ([9]; 60 min): 0.5 ± 0.0%
Percent injected dose in kidney ([10]; Group B): 0.8 ± 0.2%
Percent injected dose in liver ([10]; Group B): 9.7 ± 1.7%
Percent injected dose in bowel ([10]; Group B, small and large intestines): 14.6% and 14.6 ± 2.8%
Percent injected dose in blood ([10]; renal pedicle ligation Group B, n=6): 15.1% and 15.1 ± 0.9%
Extraction fraction [11]: 67.9±6.1% and 67.9%
Clearance relative to PAH (PAH assigned 100%) [5]: about 90%
Erythrocyte (red cell) uptake (erythrocytes): 35±1% and 35%
PPB (plasma protein binding) (plasma protein [13]): 77% and 74% and 79%
Urine 30 min (percent dose excreted) ([16]; 30 minutes): 80% and 74% and 78% and 55% and 64%
Urine (percent dose in urine) ([16]; collection time not given (voids at 30, 90, 180 min)): 98% and 93% and 96% and 83% and 81%
Plasma clearance [17]: 2.96 mL/min/100 g
Compound: O=C(O)CNC(=O)c1ccccc1[131I] [^131I-OIH, ^131I-ortho-iodohippurate]
Fraction bound to or inside red blood cells (red blood cells [12]): 15-20%
Plasma clearance, Cl [14]: 482 mL/min and 423.4 mL/min and 433.4 mL/min and 481.94 mL/min and 497.49 mL/min and 442 mL/min and 613.4 mL/min
RBC (red cell uptake) (red blood cells [15]): 20% and 15% and 21% and 25% and 24% and 14%

Compound: O=C(O)CN(CC(=O)O)CC(=O)O [NTA, nitrilotriacetic acid]
Acceptable daily intake in drinking water (Health Canada) ([18]; based on two-year rat studies, nephrotoxic no-observed-adverse-effect level): 10 μg/kg bw per day
Dose inducing urinary tract tumors ([18]; rats and mice, two years): about 840 mg/kg bw per day
Adverse effects (physical examination, blood chemistry, urinalysis) [19]: no evidence of adverse effects

Compound: O=C([O-])CN(CCN(CC(=O)[O-])CC(=O)[O-])CCN(CC(=O)[O-])CC(=O)[O-].[99Tc+4] [^99mTc-DTPA]
Extraction fraction (EF) [2]: 20%

Stability at physiological pH [20]: stable for 24 h
Clearance relative to PAH (PAH assigned 100%) [5]: about 90%
Erythrocyte (red cell) uptake (erythrocytes; listed as Na2[^99mTc(CO)3(NTA)]): 7±2% and 7%
PPB (plasma protein binding) (plasma protein [13]): 45%
PPB (plasma protein binding) (plasma protein [13]; listed as 99mTc-NTA): 39% and 40% and 50% and 42% and 53%
Stability to cysteine and histidine challenge [23]: no degradation
Plasma clearance, Cl [14]: 480 mL/min
Plasma clearance, Cl ([14]; listed as 99mTc-NTA, mean): 479.90 mL/min
RBC (red cell uptake) (red blood cells [15]): 12%
RBC (red cell uptake) (red blood cells [15]; listed as 99mTc-NTA): 6% and 15% and 20% and 16% and 4%
RBC (red cell uptake) (red blood cells [15]; listed as 99mTc-NTA, mean): 12%
Plasma clearance [17]: 3.08 mL/min/100 g
Compound: technetium-99m tricarbonyl-nitrilotriacetic acid [^99mTc(CO)3(NTA)]
pKa of the pendant carboxylic acid [21]: approximately 3
Toxicity (blood pressure, heart rate, temperature, CBC, chemistry panel, urine analysis) [22]: no evidence of any toxicity
Plasma clearance, Cl ([14]; listed as 99mTc-NTA): 477.1 mL/min and 607.9 mL/min and 388.5 mL/min and 434.2 mL/min and 491.8 mL/min
